From ChEMBL document CHEMBL4837216, “Polymyxin B-inspired non-hemolytic tyrocidine A analogues with significantly enhanced activity against gram-negative bacteria: How cationicity impacts cell specificity and antibacterial mechanism” (Eur J Med Chem, 2021)
Calls of active or inactive are those of the source.

Key:
Lipopolysaccharide (LPS) = experiment: Displacement of dansyl-polymyxinB from LPS (unknown origin) assessed as decrease in fluorescence intensity by fluorescence spectrophotometric analysis
Cell membrane [1] = experiment: Induction of cytoplasmic membrane permeabilization in Staphylococcus aureus at 0.06 to 8 times MIC measured for 10 mins by propidium iodide dye based fluorescence assay
Cell membrane [2] = experiment: Induction of cytoplasmic membrane permeabilization in Staphylococcus aureus assessed as increase in red fluorescence intensity at 2 times MIC measured after 60 mins by fluorescence microscopy
Escherichia coli [3] = experiment: Antibacterial activity against Escherichia coli ATCC 8739 assessed as inhibition of bacterial growth measured after 24 hrs by turbidity based analysis; format: functional
Pseudomonas aeruginosa = experiment: Antibacterial activity against Pseudomonas aeruginosa ATCC 27853 assessed as inhibition of bacterial growth measured after 24 hrs by turbidity based analysis; format: functional
Acinetobacter baumannii = experiment: Antibacterial activity against Acinetobacter baumannii ATCC 19606 assessed as inhibition of bacterial growth measured after 24 hrs by turbidity based analysis; format: functional; conditions: ATCC 19606 = CIP 70.34 = JCM 6841
Staphylococcus aureus [4] = experiment: Antibacterial activity against Staphylococcus aureus ATCC 6538 assessed as inhibition of bacterial growth measured after 24 hrs by turbidity based analysis; format: functional
Enterococcus faecalis = experiment: Antibacterial activity against Enterococcus faecalis ATCC 29212 assessed as inhibition of bacterial growth measured after 24 hrs by turbidity based analysis; format: functional
Staphylococcus aureus [5] = experiment: Antibacterial activity against methicillin resistant Staphylococcus aureus assessed as inhibition of bacterial growth measured after 24 hrs by turbidity based analysis; format: functional
[6] = Hemolytic activity in human RBC assessed as induction of cell lysis measured after 30 mins by microtiter plate method; format: cell-based, Erythrocyte; conditions: human red blood cells (erythrocytes)
L02 = experiment: Cytotoxicity against human L02 cells assessed as reduction in cell viability at >10 uM incubated for 24 hrs by CCK8 assay; format: cell-based; conditions: l02, 24 h
Cell membrane [7] = experiment: Induction of outer membrane permeabilization to NPN in Escherichia coli ATCC 8739 cells assessed as increase in fluorescence intensity by NPN-probe based fluorescence spectrophotometric analysis; format: subcellular
Cell membrane [8] = experiment: Induction of cytoplasmic membrane depolarization in Escherichia coli assessed as increase in fluorescence intensity a 1XMIC by DiSC3-5 dye based fluorescence method
Cell membrane [9] = experiment: Induction of cytoplasmic membrane depolarization in Staphylococcus aureus assessed as increase in fluorescence intensity a 1XMIC by DiSC3-5 dye based fluorescence method
Cell membrane [10] = experiment: Induction of cytoplasmic membrane permeabilization in Escherichia coli at 0.06 to 8 times MIC measured for 10 mins by propidium iodide dye based fluorescence assay
Cell membrane [11] = experiment: Induction of cytoplasmic membrane permeabilization in Escherichia coli at 0.06 to 8 times MIC measured for 60 mins by propidium iodide dye based fluorescence assay
Cell membrane [12] = experiment: Induction of cytoplasmic membrane permeabilization in Staphylococcus aureus at 0.06 to 8 times MIC measured for 60 mins by propidium iodide dye based fluorescence assay; format: subcellular
Cell membrane [13] = experiment: Induction of cytoplasmic membrane permeabilization in Escherichia coli assessed as increase in red fluorescence intensity at 2 times MIC measured after 60 mins by fluorescence microscopy; format: subcellular
Cell membrane [14] = experiment: Induction of cell membrane disruption in Escherichia coli assessed as increase in fluorescence intensity at 4 times MIC measured after 60 mins by PI staining based flow cytometric analysis (reference value: 0.1%); format: subcellular
Cell membrane [15] = experiment: Induction of cell membrane disruption in Escherichia coli assessed as increase in fluorescence intensity at 2 times MIC measured after 60 mins by PI staining based flow cytometric analysis (reference value: 0.1%); format: subcellular
[16] = Stability of the compound in human serum at 100 uM measured after 24 hrs by RP-HPLC analysis; format: ADME, cell-free
Escherichia coli [17] = experiment: Antibacterial activity against Escherichia coli ATCC 8739 infected in C57BL/6 mouse peritonitis sepsis model assessed as bacterial load in liver at 10 mg/kg, ip administered for 12 hrs (reference value: 5.7 +/-0.35 logCFU/gm); format: functional
Escherichia coli [18] = experiment: Antibacterial activity against Escherichia coli ATCC 8739 infected in C57BL/6 mouse peritonitis sepsis model assessed as bacterial load in kidney at 10 mg/kg, ip administered for 12 hrs (reference value: 5.15 +/-0.4 logCFU/gm); format: functional
Escherichia coli [19] = experiment: Antibacterial activity against Escherichia coli ATCC 8739 infected in C57BL/6 mouse peritonitis sepsis model assessed as bacterial load in spleen at 10 mg/kg, ip administered for 12 hrs (reference value: 6.01 +/-0.59 logCFU/gm); format: functional
Escherichia coli [20] = experiment: Antibacterial activity against Escherichia coli ATCC 8739 infected in C57BL/6 mouse peritonitis sepsis model assessed as bacterial load in lung at 10 mg/kg, ip administered for 12 hrs (reference value: 5.47 +/-0.73 logCFU/gm); format: functional
Staphylococcus aureus [21] = experiment: Antibacterial activity against Staphylococcus aureus ATCC 6538 assessed as inhibition of bacterial growth measured after 17 passages by turbidity based analysis; format: functional, organism-based
Escherichia coli [22] = experiment: Antibacterial activity against Escherichia coli ATCC 8739 infected in C57BL/6 mouse peritonitis sepsis model assessed as reduction in inflammatory cell infiltration in liver at 10 mg/kg, ip administered for 12 hrs by Hematoxylin-Eosin staining based microscopic analysis; format: functional, organism-based
Escherichia coli [23] = experiment: Antibacterial activity against Escherichia coli ATCC 8739 assessed as inhibition of bacterial growth measured after 17 passages by turbidity based analysis; format: functional, organism-based
Escherichia coli [24] = experiment: Antibacterial activity against Escherichia coli ATCC 8739 infected in C57BL/6 mouse peritonitis sepsis model assessed as reduction in inflammatory cell infiltration in kidney at 10 mg/kg, ip administered for 12 hrs by Hematoxylin-Eosin staining based microscopic analysis; format: functional, organism-based
Escherichia coli [25] = experiment: Antibacterial activity against Escherichia coli ATCC 8739 infected in C57BL/6 mouse peritonitis sepsis model assessed as reduction in inflammatory cell infiltration in spleen at 10 mg/kg, ip administered for 12 hrs by Hematoxylin-Eosin staining based microscopic analysis; format: functional, organism-based
Escherichia coli [26] = experiment: Antibacterial activity against Escherichia coli ATCC 8739 infected in C57BL/6 mouse peritonitis sepsis model assessed as reduction in inflammatory cell infiltration in lung at 10 mg/kg, ip administered for 12 hrs by Hematoxylin-Eosin staining based microscopic analysis; format: functional, organism-based
Lipid bilayer [27] = experiment: Binding affinity to bacterial inner membrane mimic DOPE/DOPG (3:1) large unilamellar vesicles assessed as calcein leakage measured after 30 mins fluorescence based assay
Cell membrane [28] = experiment: Induction of cell membrane disruption in Escherichia coli assessed as wrinkled cells at 20 uM incubated for 1 hr by scanning electron microscopy
Cell membrane [29] = experiment: Induction of cell membrane disruption in Staphylococcus aureus assessed as cell morphological damage at 20 uM incubated for 1 hr by scanning electron microscopy; format: subcellular
Escherichia coli [30] = experiment: Bactericidal activity against Escherichia coli assessed as decrease in cell survival at 1XMIC measured after 24 hrs by colony counting assay; format: functional, organism-based
Staphylococcus aureus [31] = experiment: Bactericidal activity against Staphylococcus aureus assessed as decrease in cell survival at 1XMIC measured after 24 hrs by colony counting assay; format: functional, organism-based
Cell membrane [32] = experiment: Induction of cell membrane disruption in Escherichia coli assessed as increase in fluorescence intensity at 1 times MIC measured after 60 mins by PI staining based flow cytometric analysis (reference value: 0.1%); format: subcellular
Lipid bilayer [33] = experiment: Binding affinity to eukaryotic cell membrane mimic DOPC/Cholesterol (3:1) large unilamellar vesicles assessed as calcein leakage measured after 30 mins fluorescence based assay
Escherichia coli [34] = experiment: Antibacterial activity against Escherichia coli ATCC 8739 infected in C57BL/6 mouse peritonitis sepsis model assessed as clear boundaries between hepatic cell cords in liver at 10 mg/kg, ip administered for 12 hrs by Hematoxylin-Eosin staining based microscopic analysis; format: functional, organism-based
Escherichia coli [35] = experiment: Antibacterial activity against Escherichia coli ATCC 8739 infected in C57BL/6 mouse peritonitis sepsis model assessed as glomerulus and renal tubules with normal shape in kidney at 10 mg/kg, ip administered for 12 hrs by Hematoxylin-Eosin staining based microscopic analysis; format: functional, organism-based
Escherichia coli [36] = experiment: Antibacterial activity against Escherichia coli ATCC 8739 infected in C57BL/6 mouse peritonitis sepsis model assessed as clear boundaries between white and red pulps in spleen at 10 mg/kg, ip administered for 12 hrs by Hematoxylin-Eosin staining based microscopic analysis; format: functional, organism-based
Escherichia coli [37] = experiment: Antibacterial activity against Escherichia coli ATCC 8739 infected in C57BL/6 mouse peritonitis sepsis model assessed as reduction in bleeding with normal shaped alveoli at 10 mg/kg, ip administered for 12 hrs by Hematoxylin-Eosin staining based microscopic analysis; format: functional, organism-based

CC(C)C[C@@H]1NC(=O)[C@H](CCCN)NC(=O)[C@H](CCCN)NC(=O)[C@H](CCCN)NC(=O)[C@H](CCCN)NC(=O)[C@H](CCCN)NC(=O)[C@@H](Cc2ccccc2)NC(=O)[C@H](Cc2ccccc2)NC(=O)[C@@H]2CCCN2C(=O)[C@@H](Cc2ccccc2)NC1=O
4.25 log10CFU/g: Activity (Escherichia coli [19])
91.8%: Activity (Cell membrane [14])
Toxic: Activity (L02)
3.15 log10CFU/g: Activity (Escherichia coli [20])
3.48 log10CFU/g: Activity (Escherichia coli [18])
active: Activity (Lipopolysaccharide (LPS)) | Activity (Cell membrane [2]) | Activity (Cell membrane [7]) | Activity (Cell membrane [8]) | Activity (Cell membrane [9]) | Activity (Cell membrane [11]) | Activity (Cell membrane [12]) | Activity (Cell membrane [13]) | Activity (Staphylococcus aureus [21]) | Activity (Escherichia coli [22]) | Activity (Escherichia coli [23]) | Activity (Escherichia coli [24]) | Activity (Escherichia coli [25]) | Activity (Escherichia coli [26]) | Activity (Lipid bilayer [27]) | Activity (Cell membrane [28]) | Activity (Cell membrane [29]) | Activity (Escherichia coli [30]) | Activity (Staphylococcus aureus [31]) | Activity (Escherichia coli [34]) | Activity (Escherichia coli [35]) | Activity (Escherichia coli [36]) | Activity (Escherichia coli [37])
42.7%: Activity (Cell membrane [32])
78.3%: Activity (Cell membrane [15])
inactive: Activity (Cell membrane [1]) | Activity (Cell membrane [10]) | Activity (Lipid bilayer [33])
2.49 log10CFU/g: Activity (Escherichia coli [17])
> 400 µM: HC50 at 0.5 h [6]
5 µM: MIC (Escherichia coli [3]) | MIC (Staphylococcus aureus [4]) | MIC (Enterococcus faecalis)
10 µM: MIC (Pseudomonas aeruginosa) | MIC (Acinetobacter baumannii) | MIC (Staphylococcus aureus [5])
Stable: Stabilty [16]
